Assay results taken from patent US6436952B1, “Benzonaphthyridine-N-oxides comprising a PDE3 and PDE4 inhibiting activity” (BYK Gulden Lomberg Chemische Fabrik GmbH, priority 1998, dated 2002).

Columns and labels:
PDE4 (cAMP-specific) = assay: Inhibition of PDE isoenzymes: PDE4 in cytosol of human polymorphonuclear leukocytes; format: biochemical; details: cytosol of human PMNL, cAMP as substrate, motapizone (1 μM) present
Procedure: (§1) The PDE activity was determined according to Thompson et al. (1) with some modifications (2). The test samples contained 40 mM tris HCl (pH 7.4), 5 mM MgCl2, 0.5 μM cAMP or cGMP, [^3H]cAMP or [^3H]cGMP (about 50 000 cpm/sample), the PDE isoenzyme-specific additions described in greater detail below, the indicated concentrations of inhibitor and an aliquot of the enzyme solution in a total sample volume of 200 μl. […] After preincubation at 37° C. for 5 minutes, the reaction was started by addition of the substrate (cAMP or cGMP). The samples were incubated at 37° C. for a further 15 min. The reaction was terminated by addition of 50 μl of 0.2N HCl. After cooling on ice for 10 minutes and addition of 25 μg of 5′-nucleotidase (snake venom from Crotalus atrox), the mixture was again incubated at 37° C. for 10 min and the samples were then applied to QAE Sephadex A-25 columns. The columns were eluted with 2 ml of 30 mM ammonium formate (pH 6.0). The radioactivity of the eluate was measured and corrected by the corresponding blank values. The proportion of hydrolyzed nucleotide in no case exceeded 20% of the original substrate concentration. […]
(§2) The lC50 values were determined from the concentration-inhibition curves by nonlinear regression using the GraphPad InPlot™ program (GraphPad Software Inc., Philadelphia, USA).

PDE3 (cGMP-inhibited) = biological target: T1, PDE3 (cGMP-inhibited) (Homo sapiens, UniProt Q14432); assay: Inhibition of PDE isoenzymes: PDE3 in homogenates of human blood platelets; format: biochemical; details: cAMP as substrate, read-out: PDE3 [-log IC50, mol/l] (converted)
T1 construct: were investigated in homogenates of human blood platelets; from tissue; host or cells: homogenate of human blood platelets
Procedure: as §1, §2

T1 sequence (Q14432 whole entry): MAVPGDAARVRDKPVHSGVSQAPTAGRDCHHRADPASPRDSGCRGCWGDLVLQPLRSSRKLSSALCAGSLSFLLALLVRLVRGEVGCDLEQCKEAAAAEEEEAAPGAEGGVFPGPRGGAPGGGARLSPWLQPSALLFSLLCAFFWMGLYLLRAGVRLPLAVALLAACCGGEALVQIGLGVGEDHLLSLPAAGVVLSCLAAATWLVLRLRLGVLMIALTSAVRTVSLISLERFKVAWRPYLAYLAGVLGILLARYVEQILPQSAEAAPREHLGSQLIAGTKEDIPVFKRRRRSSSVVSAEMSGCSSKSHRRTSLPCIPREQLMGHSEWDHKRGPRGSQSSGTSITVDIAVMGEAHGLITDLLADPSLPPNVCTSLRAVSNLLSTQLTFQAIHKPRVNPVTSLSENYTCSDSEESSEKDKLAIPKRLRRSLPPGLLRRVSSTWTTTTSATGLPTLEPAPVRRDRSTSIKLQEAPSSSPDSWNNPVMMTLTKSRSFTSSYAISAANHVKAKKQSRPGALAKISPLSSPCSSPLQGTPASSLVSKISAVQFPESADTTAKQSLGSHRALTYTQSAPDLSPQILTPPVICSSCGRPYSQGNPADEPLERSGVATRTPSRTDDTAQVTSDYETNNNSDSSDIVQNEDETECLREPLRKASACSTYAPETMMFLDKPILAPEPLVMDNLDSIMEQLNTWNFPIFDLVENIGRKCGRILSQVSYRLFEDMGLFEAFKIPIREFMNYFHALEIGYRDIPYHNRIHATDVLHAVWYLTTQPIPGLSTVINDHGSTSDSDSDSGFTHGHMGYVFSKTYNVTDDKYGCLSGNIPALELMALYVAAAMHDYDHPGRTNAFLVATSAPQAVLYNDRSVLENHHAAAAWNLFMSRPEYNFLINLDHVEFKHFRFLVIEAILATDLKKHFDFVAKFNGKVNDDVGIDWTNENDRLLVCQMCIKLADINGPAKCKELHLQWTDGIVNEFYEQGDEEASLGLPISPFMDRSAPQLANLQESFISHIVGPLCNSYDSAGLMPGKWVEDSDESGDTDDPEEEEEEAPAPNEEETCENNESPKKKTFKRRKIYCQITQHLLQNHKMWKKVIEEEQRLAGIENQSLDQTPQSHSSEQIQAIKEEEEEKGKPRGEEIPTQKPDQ

CCOc1cc2c(cc1OC)C(c1ccc(-c3nnn(CC)n3)cc1)=NC1CC[N+](C)([O-])CC21 (stereo not drawn) [Compound 1, cis-9-Ethoxy-8-methoxy-2-methyl-6-[4-(2H-2-ethyltetrazol-5-yl)phenyl]-1,2,3,4,4a,10b-hexahydrobenzo[c][1,6]naohthyridine N-2-Oxide]
melting point: 168 to 170 °C | PDE4 [-log IC50, mol/l] (PDE4 (cAMP-specific)): 7.53 -log IC50, mol/l | IC50 (PDE3 (cGMP-inhibited)): 776 nM
